From ChEMBL document CHEMBL1201862, “PubChem BioAssay data set” (2004)
Calls of active or inactive are those of the source.

Assays:
[1] = biological target: T1, Rac GTPase-activating protein 1 (Homo sapiens, UniProt Q9H0H5); test: blockers of MgcRacGAP-driven Rac1 GTP hydrolysis – biochemical, ADP Hunter fluorescence, primary and confirmatory, confirmation (AID 624330); assay type: functional
T1 sequence (Q9H0H5 whole entry): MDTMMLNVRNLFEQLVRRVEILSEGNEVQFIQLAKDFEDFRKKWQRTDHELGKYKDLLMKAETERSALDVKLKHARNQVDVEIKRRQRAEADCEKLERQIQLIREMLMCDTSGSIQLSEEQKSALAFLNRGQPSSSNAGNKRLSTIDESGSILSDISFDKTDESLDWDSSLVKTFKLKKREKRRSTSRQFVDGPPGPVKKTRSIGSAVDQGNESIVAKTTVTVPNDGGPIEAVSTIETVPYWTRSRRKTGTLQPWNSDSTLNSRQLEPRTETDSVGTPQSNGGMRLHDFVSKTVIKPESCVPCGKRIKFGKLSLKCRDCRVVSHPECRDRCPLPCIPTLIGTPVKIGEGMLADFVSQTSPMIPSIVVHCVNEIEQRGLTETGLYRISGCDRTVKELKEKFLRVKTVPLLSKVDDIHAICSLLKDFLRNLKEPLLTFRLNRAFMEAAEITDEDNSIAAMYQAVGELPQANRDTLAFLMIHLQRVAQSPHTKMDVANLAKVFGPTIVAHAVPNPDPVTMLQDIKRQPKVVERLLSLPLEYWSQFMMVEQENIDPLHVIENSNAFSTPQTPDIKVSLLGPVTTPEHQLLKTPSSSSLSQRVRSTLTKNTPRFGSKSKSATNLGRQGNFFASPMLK

[2] = cells; assay type: functional
[3] = test system: Streptococcus; test: GAS UMAA2166 growth inhibition – luminescence, BacTiterGlo, counter-screen for streptokinase expression inhibitor project, dose response (AID 1915); assay type: functional, organism-based;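 further: potency for reduction of bacterial viability or growth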
[4] = test system: Streptococcus sp. 'group A'; test: Streptococcus pyogenes SK(-)GAS viability under kanamycin – luminescence, BacTiterGlo, confirmation, counter-screen for streptokinase expression inhibitor project, dose response (AID 1900); assay type: functional, organism-based
[5] = microbe, parasite or virus in culture; assay type: functional; conditions: Mycobacterium tuberculosis
[6] = biological target: T2, Streptokinase A (Streptococcus pyogenes serotype M1, UniProt P10520); test: viability-normalized secreted streptokinase activity reduction – plasminogen activation absorbance, OD405, dose response (AID 1914); assay type: functional, Streptococcus pyogenes M1 GAS;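 further: secreted streptokinase activity via plasminogen activation per viability signal from cell pellet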
T2 sequence (P10520 whole entry): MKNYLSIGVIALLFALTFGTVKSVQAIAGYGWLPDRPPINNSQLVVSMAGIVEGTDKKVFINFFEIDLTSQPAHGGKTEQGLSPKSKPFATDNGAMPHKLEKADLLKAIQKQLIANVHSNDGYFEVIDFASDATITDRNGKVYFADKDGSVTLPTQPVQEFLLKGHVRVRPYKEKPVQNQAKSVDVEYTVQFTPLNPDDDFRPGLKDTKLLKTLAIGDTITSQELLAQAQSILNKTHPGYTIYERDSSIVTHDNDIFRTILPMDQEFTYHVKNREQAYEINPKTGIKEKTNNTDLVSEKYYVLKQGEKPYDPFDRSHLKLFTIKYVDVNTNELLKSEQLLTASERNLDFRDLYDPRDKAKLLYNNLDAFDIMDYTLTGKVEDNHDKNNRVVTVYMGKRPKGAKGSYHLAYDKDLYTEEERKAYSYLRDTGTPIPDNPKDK

[7] = biological target: Large T antigen (Simian virus 40, UniProt P03070); assay type: functional, Betapolyomavirus macacae;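 further: Confirmatory-stage PubChem screen for compounds that inhibit SV40 T antigen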
[8] = biological target: T3, Heat shock factor protein 1 (Mus musculus, UniProt P38532); test: enhancement of HSF1-driven luciferase signal – cell-based, NIH3T3, luminescence, dose retest, confirmation (AID 435004); assay type: functional;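 further: stress induced by proteasome inhibitor MG132 added 30 min after compound; luciferase reporter driven by HSF1 response element in NIH3T3 cells; actives raise luminescence as potentiators of the MG132 stress response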
T3 sequence (P38532 whole entry): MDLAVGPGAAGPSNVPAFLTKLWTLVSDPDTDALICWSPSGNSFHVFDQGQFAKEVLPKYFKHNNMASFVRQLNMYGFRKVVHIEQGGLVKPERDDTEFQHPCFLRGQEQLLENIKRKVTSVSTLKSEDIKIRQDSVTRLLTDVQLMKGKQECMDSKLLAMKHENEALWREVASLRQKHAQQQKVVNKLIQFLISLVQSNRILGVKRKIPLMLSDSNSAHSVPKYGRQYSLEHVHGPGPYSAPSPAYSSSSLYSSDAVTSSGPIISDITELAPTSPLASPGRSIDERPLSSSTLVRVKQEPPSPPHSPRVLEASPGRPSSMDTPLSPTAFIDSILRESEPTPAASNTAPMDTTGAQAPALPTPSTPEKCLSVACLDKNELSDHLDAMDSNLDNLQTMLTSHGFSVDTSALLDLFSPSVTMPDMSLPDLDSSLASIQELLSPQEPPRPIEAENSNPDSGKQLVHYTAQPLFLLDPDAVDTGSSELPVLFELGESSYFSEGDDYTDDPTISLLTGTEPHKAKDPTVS

[9] = viability of HCT116 lacking mutant beta-catenin – cell-based, human colon tumor, dose response (AID 1045); assay type: functional;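 further: HCT116 colon tumor cells with beta catenin knocked out; cells exposed to compound for 60 hours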
[10] = biological target: Cytochrome P450 2D6 (Homo sapiens, UniProt P10635);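 further: CYP2D6 member of a cytochrome P450 panel assay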
[11] = viability of PTEN-deleted HCT116 cells – cell-based, HCT116 PTEN knockout, dose response (AID 1047); assay type: functional;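 further: HCT116 colon tumor cells with PTEN knocked out; cells exposed to compound for 60 hours before readout; potency for loss of cell viability measured by luminescence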
[12] = biological target: T4, Leucine aminopeptidase (Plasmodium falciparum 3D7, UniProt Q8IL11); test: P. falciparum M17LAP inhibitors, primary screen, biochemical, fluorogenic H-Leu-NHMec substrate, 1536-well (AID 1619); assay type: functional
T4 sequence (Q8IL11 whole entry): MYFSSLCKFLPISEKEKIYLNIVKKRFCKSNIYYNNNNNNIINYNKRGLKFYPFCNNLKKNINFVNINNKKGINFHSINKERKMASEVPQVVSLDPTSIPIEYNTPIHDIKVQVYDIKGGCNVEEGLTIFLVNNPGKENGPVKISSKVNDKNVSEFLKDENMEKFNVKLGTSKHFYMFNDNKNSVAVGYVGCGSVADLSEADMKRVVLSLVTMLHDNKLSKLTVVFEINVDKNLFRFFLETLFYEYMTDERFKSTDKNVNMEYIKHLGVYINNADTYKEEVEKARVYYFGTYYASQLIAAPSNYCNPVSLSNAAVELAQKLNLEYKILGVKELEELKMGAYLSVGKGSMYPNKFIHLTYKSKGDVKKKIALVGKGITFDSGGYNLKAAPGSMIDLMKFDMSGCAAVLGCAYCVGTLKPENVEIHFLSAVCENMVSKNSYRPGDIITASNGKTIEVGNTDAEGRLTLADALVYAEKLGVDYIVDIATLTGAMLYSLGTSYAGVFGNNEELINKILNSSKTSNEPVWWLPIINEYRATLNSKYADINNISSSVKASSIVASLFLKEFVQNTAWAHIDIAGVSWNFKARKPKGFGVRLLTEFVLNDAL

[13] = Trypanosoma cruzi growth suppression in host cells – NIH3T3 host cells, beta-gal luminescence, confirmation (AID 2044); assay type: functional, cell-based;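 further: intracellular parasites grown in NIH/3T3 mouse fibroblasts as host cells; luminescent beta-galactosidase reporter signal from transgenic T. cruzi replicating inside host cells; inhibitors lower the luminescence signal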
[14] = NIH3T3 cell viability loss – ATP luminescence, mouse fibroblasts, counter-screen, dose response (AID 2010); assay type: functional, cell-based;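 further: cells exposed to compound for about 90 hours before reading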

Chain of Large T antigen (P03070 whole entry): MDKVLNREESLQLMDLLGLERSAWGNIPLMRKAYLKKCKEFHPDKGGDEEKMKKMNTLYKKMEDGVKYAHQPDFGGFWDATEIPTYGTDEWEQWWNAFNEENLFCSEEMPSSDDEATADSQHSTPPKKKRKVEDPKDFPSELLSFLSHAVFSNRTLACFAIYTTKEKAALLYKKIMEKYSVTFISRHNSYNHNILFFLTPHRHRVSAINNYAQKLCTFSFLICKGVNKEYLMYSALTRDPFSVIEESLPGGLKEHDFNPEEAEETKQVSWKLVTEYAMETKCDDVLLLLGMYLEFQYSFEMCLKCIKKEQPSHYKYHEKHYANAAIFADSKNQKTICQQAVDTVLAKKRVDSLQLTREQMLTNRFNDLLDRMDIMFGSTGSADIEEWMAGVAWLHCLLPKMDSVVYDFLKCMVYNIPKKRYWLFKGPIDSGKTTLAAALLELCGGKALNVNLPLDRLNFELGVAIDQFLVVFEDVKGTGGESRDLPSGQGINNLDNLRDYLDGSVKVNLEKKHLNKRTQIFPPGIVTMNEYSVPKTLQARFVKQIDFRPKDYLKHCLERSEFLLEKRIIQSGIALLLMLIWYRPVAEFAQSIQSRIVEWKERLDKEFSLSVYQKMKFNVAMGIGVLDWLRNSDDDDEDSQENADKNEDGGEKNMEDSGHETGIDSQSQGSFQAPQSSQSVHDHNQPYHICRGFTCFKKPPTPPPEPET
Chain of Cytochrome P450 2D6 (P10635 whole entry): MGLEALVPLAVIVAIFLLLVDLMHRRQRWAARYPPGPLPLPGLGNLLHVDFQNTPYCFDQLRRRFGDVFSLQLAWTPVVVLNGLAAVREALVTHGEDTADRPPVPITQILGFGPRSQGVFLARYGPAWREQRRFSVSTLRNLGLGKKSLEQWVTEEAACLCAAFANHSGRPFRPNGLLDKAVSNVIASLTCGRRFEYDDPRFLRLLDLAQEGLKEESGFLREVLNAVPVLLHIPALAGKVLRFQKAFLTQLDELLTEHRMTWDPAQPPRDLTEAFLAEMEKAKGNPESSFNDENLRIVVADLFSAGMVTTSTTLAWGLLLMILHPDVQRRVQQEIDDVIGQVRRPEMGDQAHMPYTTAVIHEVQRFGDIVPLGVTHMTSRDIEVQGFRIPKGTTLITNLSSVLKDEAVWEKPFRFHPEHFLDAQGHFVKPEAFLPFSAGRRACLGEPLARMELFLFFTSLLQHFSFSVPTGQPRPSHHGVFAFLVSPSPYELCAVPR

CS(=O)(=O)Cc1nc2ccccc2oc1=O
IC50 [1]: 73.6 µM (active) | IC50 [2]: 2.93 µM (active)

Cc1nn(-c2ccccc2)c(C)c1/C=N/NC(=O)c1cc(-c2cccc3ccccc23)[nH]n1
EC50 [3]: 89.4 µM (active) | EC50 [4]: 18.6 µM (active) | CC50 [5]: 30.5 µM (active) | EC50 [6]: > 150 µM (not active)

O=C(N/N=C/c1ccc(Br)s1)c1cccs1
CC50 [5]: 33.3 µM (active)

CCCCn1nnnc1SCC(=O)Nc1ccc(N(C)C)cc1
IC50 [7]: 11.2 µM (active)

Fc1ccc(CN2CCN(c3ncnc4scc(-c5ccccc5)c34)CC2)cc1
EC50 [8]: > 260 µM (inactive)

O=C1CC(SC(=Nc2ccccc2)Nc2ccccc2)C(=O)N1c1cccc(Cl)c1 (configuration not stated)
EC50 [9]: 33.2 µM (active) | AC50 [10]: 10 µM (inconclusive) | EC50 [11]: 24.5 µM (active)

COc1ccc(NC2CCCN(C(=O)c3ccc(OC)o3)C2)cc1 (configuration not stated)
IC50 [7]: 16.7 µM (active)

CCOc1cc(/C=N/n2cnnc2)ccc1O
IC50 [1]: 34.3 µM (active) | IC50 [7]: 13.6 µM (active)

COc1cccc(/C=N/NC(=S)NC2CC3CC2C2C=CCC32)c1O (configuration not stated)
EC50 [8]: > 260 µM (inactive)

CCCCn1c(=N)n(CC(O)COc2ccc(C)cc2)c2ccccc21 (configuration not stated)
EC50 [9]: 6.36 µM (active) | EC50 [11]: 6.43 µM (active)

O=C(N/N=C/c1ccc(F)c(F)c1)c1cc2c(s1)-c1ccccc1CC2
EC50 [9]: 21.2 µM (active) | EC50 [11]: 22.4 µM (active)

COc1ccc(NC(=O)Nc2ccc3oc(C)nc3c2)cc1
IC50 [12]: 14.8 µM (active)

Cc1ccc2c[nH]nc2c1N
IC50 [7]: 15.4 µM (active)

CCOC(=O)CN1C=C(c2ccc3ccccc3n2)C(C[N+](=O)[O-])c2ccccc21 (configuration not stated)
EC50 [8]: 70.3 µM (active)

COc1cc2c3c(c1OC)C1(C=CC(=O)C=C1)CC3N(C(=O)c1ccccc1)CC2 (configuration not stated)
EC50 [8]: > 260 µM (inactive)

CCOC(=O)c1cnn2cc(-c3[nH]ncc3[N+](=O)[O-])cnc12
IC50 [12]: 5.26 µM (active)

Cc1ccc(P(=O)(CSC(=N)N)c2ccc(C)cc2)cc1
EC50 [9]: 25.4 µM (active) | EC50 [11]: 30.7 µM (active)

O=C(CNC(=O)c1ccco1)OCc1ccc(C(=O)Oc2ccccc2)cc1
CC50 [5]: > 40 µM (active) | IC50 [2]: 11.7 µM (active)

COc1ccc(NC(=O)CSc2nnc(NC(=O)c3ccccc3C(=O)O)s2)cc1
IC50 [12]: 6.27 µM (active)

Cc1nc(CN2CCN(Cc3nc(C(c4ccccc4)c4ccccc4)no3)CC2)cs1
EC50 [8]: > 260 µM (inactive)

Cc1ccc(S(=O)(=O)N2CCOCC2)cc1NC(=O)CN1CCN(c2ccc(O)cc2)CC1
IC50 [7]: 5.03 µM (active)

Cc1cc(N/N=C2/CCCc3ccccc32)nc2ccccc12
CC50 [5]: > 40 µM (active)

CN1C(=O)C(O)(CC(=O)c2ccc(F)cc2)c2cc(Br)ccc21 (configuration not stated)
EC50 [9]: 15.7 µM (active) | EC50 [11]: 19.1 µM (active)

CCOc1ccc(C(=O)N2CCN(S(=O)(=O)c3cccs3)CC2)c(OCC)c1
EC50 [8]: > 260 µM (inactive)

S=C1NC(c2ccccc2)N2C(=S)NC(c3ccccc3)N12 (configuration not stated)
IC50 [12]: 20.9 µM (active)

Cc1cc(C)cc(OCC(O)CN2C(=O)NC(C)(C)C2=O)c1 (configuration not stated)
EC50 [8]: > 260 µM (inactive)

O=C(N/N=C/c1ccc([N+](=O)[O-])o1)c1cc(-c2cccc(Br)c2)nc2ccccc12
EC50 [13]: 0.128 µM (active) | EC50 [3]: 0.796 µM (active) | EC50 [4]: 0.398 µM (active) | EC50 [9]: 7.86 µM (active) | EC50 [14]: > 60 µM (not active) | EC50 [11]: 7.92 µM (active)

N/C(S)=N/c1c(Cl)cccc1Cl
IC50 [7]: 77.4 µM (active)

COc1ccccc1C(=O)NNC(=O)C(=O)NCc1ccccc1
CC50 [5]: > 40 µM (active)

CN(C)c1ccc(NC(=O)CN2CCC(C(=O)c3ccc(F)cc3)CC2)cc1
IC50 [7]: 10.4 µM (active)

Cc1cccc(N(CC(=O)Nc2ccccc2-c2ccccc2)S(=O)(=O)c2ccccc2)c1C
EC50 [8]: > 260 µM (inactive)

CCCCOC(=O)Cn1c(-c2ccccc2)nc2ccccc2c1=O
IC50 [2]: 12.7 µM (active)

COc1cccc(/C=N/NC(=O)CC2C(=O)NN=C2C)c1OC (configuration not stated)
IC50 [12]: 23.5 µM (active)

CCOC(=O)N1CCC(NC(=O)c2cccs2)CC1
EC50 [8]: > 260 µM (inactive)

CN(C(=O)c1ccccc1C(=O)OCC(=O)NCc1cccs1)C1CCCCC1
IC50 [7]: > 100 µM (active)
